From patent publication US9632092B2, “Reagent for diagnosing tumor, pharmaceutical composition, and screening method” (Tokyo Metropolitan Institute of Medical Science, priority 2012, dated 2017)
Where no end group is shown, it is not given here. [ ]: non-standard residue; d: D form. pS = N[C@@H](COP(=O)(O)O)C(=O)O

Experiments:
[1] = molecular target: mouse Keap1-DC (aa321-609, SEQ ID No. 24) (Mus musculus, UniProt Q9Z2X8); assay: isothermal titration calorimetry, binding to Keap1-DC; details: for Binding constant (Ka) to Keap1-DC: isothermal titration calorimetry, 25° C.; for binding affinity for Keap1-DC relative to KIR of the non-phosphorylated p62: fold higher binding constant
Chain of mouse Keap1-DC (aa321-609, SEQ ID No. 24) (Q9Z2X8 321-609): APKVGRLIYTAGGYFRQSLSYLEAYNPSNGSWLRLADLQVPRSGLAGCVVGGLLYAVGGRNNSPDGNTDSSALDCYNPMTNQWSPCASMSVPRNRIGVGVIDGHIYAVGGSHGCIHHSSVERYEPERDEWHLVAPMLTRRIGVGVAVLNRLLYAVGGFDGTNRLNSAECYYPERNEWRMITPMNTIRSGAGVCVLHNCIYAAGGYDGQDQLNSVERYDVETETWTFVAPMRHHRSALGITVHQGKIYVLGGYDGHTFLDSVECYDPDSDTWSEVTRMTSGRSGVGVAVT
Description: Binding isotherms were obtained using isothermal titration calorimetry, for the interaction of mouse Keap1-DC (aa321-609, SEQ ID No. 24) with KIR in mouse non-phosphorylated p62 (SEQ ID No. 21), KIR in mouse phosphorylated p62 (SEQ ID No. 21), or an ETGE motif of mouse Nrf2 (SEQ ID No. 26) (FIG. 2).
First, isothermal titration calorimetry was performed using MicroCal iTC200 System (GE Healthcare) at 25° C. 2.5 μl of 0.1 mM solution of non-phosphorylated KIR (^348[sequence]^356, SEQ ID No. 21) was injected from a rotating syringe (1000 rpm) into 200 μl of 0.1 mM solution of Keap1-DC sixteen times at an interval of 3 minutes. 1.3 μl of 0.6 mM phosphorylated KIR (^348VDP(pS)TGELQ^356) solution was injected from a rotating syringe (1000 rpm) into 200 μl of 0.06 mM Keap1-DC solution thirty times at an interval of 2 minutes. […] The binding data were analyzed using Origin 7 software (GE healthcare).

[2] = tested on: Huh-1_p62^−/− cells; assay: subdermal transplantation of Huh-1_p62−/− cells with introduced p62 mutants into nude mice; format: in vivo; details: 50 days after transplantation, introduced into Huh-1_p62−/−
Description: First, p62 cDNAs which encode S349E (SEQ ID No. 8) (pseudo-phosphorylated p62) with the substitution of glutamic acid for serine 349 of human p62 (SEQ ID No. 7), S349A (SEQ ID No. 9) (non-phosphorylated p62) with the substitution of alanine for serine 349 of human p62, or T350A (SEQ ID No. 10) (p62 mutant defective in interacting with Keap1) with the substitution of alanine for threonine 350 of human p62 was prepared.
Next, a [Huh-1_p62^−/−] cell line was generated by knocking out the p62 gene in Huh-1 cells, using Zinc Finger Nuclease system (Sigma-Aldrich, CompoZr (registered trademark) Zinc Finger Nuclease). Then, adenoviruses having p62 w.t. or p62 mutant were produced, using Adenovirus expression kit (Takara Bio). The [Huh-1_p62^−/−] cells were cultured in 2 ml of a growth medium (Williams E medium containing 10% fetal bovine serum, 5 U/ml penicillin, and 50 μg/ml streptomycin) for 24 hours. The medium was replaced with a fresh medium containing adenovirus at MOI of 50 and the cells were continuously cultured. Wild-type human p62 (SEQ ID No. 7), S349E (SEQ ID No. 8), S349A (SEQ ID No. 9), and T350A (SEQ ID No. 10) were introduced into the [Huh-1_p62^−/−] cell line and thus a [Huh-1_p62^−/−_p62 w.t.] cell line with p62 w.t., a [Huh-1_p62^−/−_p62S349E] cell line with p62S349E, a [Huh-1_p62^−/−_p62S349A] cell line with p62S349A, and a [Huh-1_p62^−/−_p62T350A] cell line with p62T350A, respectively, in [Huh-1_p62^−/−] cell line was obtained.
Each of the cells was transplanted subdermally into […] nude mice. […] Each cell line was transplanted into five mice and the volume (left) and the weight (right) of the tumors were measured 50 days after the transplantation. Mean±standard error for each cell line was calculated and shown in the graphs in FIG. 7(b).

[3] = tested on: Nrf2; assay: immunoblotting of nuclear and whole cell extracts of hepatocytes expressing p62 mutants; format: cell-based, mouse; details: normal hepatocytes
Description: Adenoviruses capable of expressing FLAG-tagged p62 w.t. […] Next, normal hepatocytes were cultured in 2 ml of growth medium (Williams E medium containing 10% fetal bovine serum, 5 U/mL penicillin, and 50 μg/mL streptomycin) for 24 hours. The medium was replaced with fresh medium containing the adenovirus at MOI of 50 and the culture was continued. Twenty-four hours after the replacement of the medium, whole cell extract (Total) and nuclear extract (Nucleus) were prepared. Next, immunoprecipitates were prepared from the whole cell extract with anti-FLAG antibody (Sigma Chemical). Then, the samples were separated by NuPAGE electrophoresis system (Invitrogen) on 12% bis-tris gel and MOPS-SDS buffer, and transferred to PVDF membranes. The signals were detected using anti-p62 antibody (GP62C: Progen Biotechnik), anti-Keap1 antibody (Proteintech Group), anti-phosphorylated p62 antibody, anti-Nqo1 antibody (Abcam), anti-Actin antibody (MAB1501R: Millipore), anti-Nrf2 antibody (H-300: Santa Cruz Biotechnology), and anti-LaminB antibody (M-20: Santa Cruz Biotechnology).

Binding constant (Ka) to Keap1-DC [1] | Substance | in vivo proliferation of the tumor cells (tumor volume and weight) [2] | further results
(5.67±1.19)×10^4 M^−1 | non-phosphorylated p62-KIR: non-phosphorylated Keap1-interacting region peptide of mouse p62, 348VDPSTGELQ356, SEQ ID No. 21 (listed as Mus musculus) [reference compound] |  | 
 | T350A: human p62 mutant defective in interacting with Keap1, alanine for threonine 350, SEQ ID No. 10 [reference compound] | not recovered | 
 | p62 (S349E): pseudo-phosphorylated human p62 mutant, glutamic acid for serine 349, SEQ ID No. 8 | significantly enhanced | 
 | S351E: pseudo-phosphorylated mouse p62 mutant, glutamic acid for serine 351, SEQ ID No. 2 |  | Nrf2 accumulation in nuclei ([3]; nuclear extract): significantly accumulated; expression of Nqo1 (Nrf2 target) ([3]; whole cell extract): induced
(5.12±1.80)×10^6 M^−1 | phosphorylated p62-KIR: Keap1-interacting region peptide of mouse p62 phosphorylated at serine 351, 348VDP(pS)TGELQ356 (VDP[pS]TGELQ; listed as Mus musculus) |  | binding affinity for Keap1-DC relative to KIR of the non-phosphorylated p62 [1]: about 100 times; binding affinity for Keap1-DC relative to KIR of the non-phosphorylated p62 ([1]; listed as KIR in the phosphorylated p62): approximately 100 times
 | S349A: non-phosphorylated human p62 mutant, alanine for serine 349, SEQ ID No. 9 | not recovered | 
